Several values for one entry are separate records, joined by “and”; a condition that tells them apart may be missing. Equal entries are not always repeated. Where two headings read alike, the source gives them in different places.
Tests used:
[1] = tested on: production of Leukotriene C4 in mouse peritoneal macrophages; experiment: In vitro mouse peritoneal macrophage Leukotriene C4 inhibition (zymosan-stimulated, LTC4 radioimmunoassay); format: cell-based; details: Zymosan 50 µg/mL
Experimental: The test method described below measures the ability of compounds to inhibit the production of Leukotriene C4 in mouse peritoneal macrophages.
Mice (female, CD-1, weighing 25 g) are euthanized by exposure to carbon dioxide. The peritoneal cavity is exposed by peeling back the abdominal skin. A 5 mL portion of media (M199 containing 1% fetal bovine serum, 100 units/mL of penicillin, 100 µg/mL of streptomycin, 20 units/mL of heparin and no glutamine) is injected into the exposed peritoneal cavity of each mouse. The lavage fluid is removed and pooled to yield approximately1 X 10^6 macrophages/mL. A 2 mL portion of lavage fluid is added to each well of a 24 well sterile multidish and the macrophages are allowed to adhere to the plate for 2 hours at 37°C in a 5% carbon dioxide atmosphere. The media is removed and each well is washed with 2 mL of phosphate buffered saline (PBS). A 1 mL portion of media, without heparin, but containing 5 µCi/mL of 3H-myoinositol is added to each well and the plates are incubated overnight at 37°C in a 5% carbon dioxide atmosphere. The media is removed and the cells are washed twice with 2 mL portions of PBS. A 1 mL portion of Puck's saline formulation A containing 1 mM calcium chloride, 1 mM magnesium chloride and 10 mM lithium chloride is added to each well. (The Puck's formulation is made first as a 10X solution which contains 4 g of potassium chloride, 80 g of sodium chloride and 10 g of glucose per liter. The Puck's saline formulation A is made using 10 mL of the 10X Puck's formulation, 0.47 mL of 7.5% sodium bicarbonate and 2 mL of 1M N-2-hydroxyethylpiperazine-N'-2-ethanesulfonic acid per 100 mL.)
Compounds are dissolved in dimethyl sulfoxide. Compounds are tested at concentrations of 10, 1 and 0.1 µM. Each concentration is tested in duplicate.
A 1 µL portion of compound solution or vehicle (DMSO) is added to each well and the plates are incubated for 15 minutes at 37°C in a 5% carbon dioxide atmosphere. Zymosan is then added to provide a final concentration of 50 µg/mL in each well and the plate is incubated for 1 to 2 hours at 37°C in a 5% carbon dioxide atmosphere.
Following incubation 200 µL portions of media are transferred to 12 X 75 mm tubes. The tubes are either assayed immediately or stored at -20°C until they can be assayed.
The media is assayed for the presence of Leukotriene C4 by radioimmunoassay which is performed according to the manufacturer's (Advanced Magnetics; Cambridge, MA) instructions.

[2] = tested on: production of Leukotriene B4; experiment: Rat ex vivo Leukotriene B4 inhibition (oral dosing, blood challenged with A23187); format: in vivo, Rats; details: 50 mg/Kg, two hours post dose
Experimental: The test method described below measures the ability of a compound when administered orally to rats to inhibit the production of Leukotriene B4 in their blood which is drawn and challenged.
Rats (CD, male, non-fasted, 250 g) are lightly anesthetized with carbon dioxide and an approximately 0.75 mL sample of whole blood is obtained via cardiac puncture. The sample is dispensed into 12 X 75 mm polypropylene tubes containing 8-10 µL of 10,000 units/mL heparin, mixed and then maintained on ice. The rats are allowed to recover approximately one hour then dosed orally with compound dissolved in PEG 400 at a 5 mL/Kg volume. Five (5) rats are utilized per group. Two (2) hours post dose the rats are again anesthetized with carbon dioxide and the blood sampled again via cardiac puncture.
Duplicate 200 µL portions of blood are added to 1.0 mL polypropylene tubes. A 10 µL portion of 1mM A23187 Calcium Ionophore in dimethyl sulfoxide/Tris buffer is added to each tube. The tubes are gently vortexed then incubated in a 37°C water bath for 30 minutes. The tubes are then centrifuged at 4000 rpm for 10 minutes. 50 µL portions of plasma are transferred to 1.0 mL tubes containing 200 µL of methanol. The tubes are vortexed then placed in the freezer overnight.
The tubes are removed from the freezer then centrifuged at 4000 rpm for 10 minutes. […] portions of the methanol/plasma supernatant and 10 µL methanol dilutions of LTB4 standard curve are transferred to 96 well v-bottom microtiter plates. The plates are vacuum dried at 40°C. A 40 µL portion of LTB4 radioimmunoassay buffer is added to each well. The plate is bath sonicated for 5 minutes then assayed according to the manufacturer's (Advanced Magnetics; Cambridge, MA) instructions. Percent inhibition values are obtained by comparing the level of LTB4 in the post-dose samples to the level in the pre-dose samples according to the equation below. % Inhibition =((LTB4 pre-dose) - (LTB4 post-dose))/((LTB4 pre-dose))X 100 [formula]

[3] = tested on: production of Leukotriene B4 (LTB4); experiment: Dog ex vivo Leukotriene B4 inhibition (oral dosing, blood challenged with calcium ionophore); format: in vivo, beagle dogs; details: each entry one dog, negative = stimulation of LTB4 production; for inhibition at 5 mg/kg: Canis lupus familiaris, po
Experimental: The test method described below measures the ability of a compound when administered orally to dogs to inhibit the production of Leukotriene B4 (LTB4) in their blood which is drawn and challenged at selected time points.
The test is conducted in beagle dogs (male and female; about 10 Kg). Prior to starting, the neck area of the beagle is shaved to allow easy access to the jugular vein. A 3-4 mL sample of blood is drawn from the jugular vein into a heparinized vacutainer. The dog is then dosed using a tube long enough to reach its stomach. The compound is dissolved in PEG 400 at a concentration such that the appropriate dose can be administered in approximately 5 mL. Immediately after the compound is given, a flush using 5 mL of vehicle is given to rinse the dosing tube. At selected time points following the dose, a 3-4 mL sample of blood is drawn.
The blood samples that have been drawn are challenged as soon as possible. A 0.5 mL portion of blood is aliquoted into 3 tubes (1 mL microtiter tubes). A 1 µL portion of 25 mM calcium ionophore in dimethyl sulfoxide is added to 2 of the tubes. A 1 µL portion of dimethyl sulfoxide is added to the third tube. The tubes are lightly mixed then placed in a 37°C water bath for 30 minutes. The tubes are centrifuged at 11,000 rpm for 3 minutes and the plasma supernatant is transferred to clean tubes. A 50 µL portion of this plasma is added to a I mL microtiter tube containing 200 µL of methanol. The tubes are placed in the freezer at -20°C for at least 1 hour then centrifuged at 2000 rpm for 10 minutes. A 10 µL portion of the methanol supematant is dried under vacuum at ambient temperature and then reconstituted in LTB4 buffer. The amount of LTB4 in the sample is determined by radioimmunoassay performed according to the manufacturer's (Advanced Magnetics; Cambridge, MA) instructions. Percent inhibition values are obtained by comparing the level of LTB4 in the post-dose sample to the level in the pre-dose sample according to the equation below. % Inhibition =((LTB4 predose) - (LTB4 postdose))/((LTB4 predose))X 100 [formula]
A number of the compounds that are useful in the practice of the method of the invention were tested. The results are shown in Table 15 below where each entry represents the results from one dog. A negative number indicates stimulation of LTB4 production. All compounds were tested at a dose of 5 mg/Kg.

SMILES | IC50 [1] | %I [2] | further results
O=C(Nc1ccc([N+](=O)[O-])cc1)N(O)C1CCCCCCC1 [Compound 38, 1-Cyclooctyl-1-hydroxy-3-(4-nitrophenyl)urea] | < 1000 nM | 2% | 
CSc1cccc(NC(=O)N(O)C2CCCCC2)c1 [Compound 32, 1-Cyclohexyl-1-hydroxy-3-[3-(methylthio)phenyl]urea] | 400 nM | 28% | 
CC(C)N(O)C(=O)Nc1ccc(S(C)(=O)=O)cc1 [Compound 62, 1-Hydroxy-1-(1-methylethyl)-3-[4-(methylsulfonyl)phenyl]urea] | 6400 nM | 18% | 
CC(CCN(O)C(=O)Nc1ccccc1)CC(C)(C)C (stereo not drawn) [Compound 49, 1-hydroxy-3-phenyl-1-(3,5,5-trimethylhexyl)urea] | < 1000 nM | 13% | 
CSc1ccc(NC(=O)N(O)C(C)C)cc1 [Compound 15, 1-Hydroxy-1-(1-methylethyl)-3-[4-(methylthio)phenyl]urea] | < 100 nM |  | % Inhibition 1 hour ([3]; 5 mg/Kg, 1 hour post dose): 95%; % Inhibition 2 hour ([3]; 5 mg/Kg, 2 hour post dose): 98%; % Inhibition 4 hour ([3]; 5 mg/Kg, 4 hour post dose): 98% and 96% and 31%; % Inhibition 6 hour ([3]; 5 mg/Kg, 6 hour post dose): 84% and 14%; inhibition at 5 mg/kg ([3]; 1 h, 1 hour post dose, read-out: % Inhibition 1 hour): 100%; inhibition at 5 mg/kg ([3]; 2 h, 2 hour post dose, read-out: % Inhibition 2 hour): 99%
CC(C)N(O)C(=O)Nc1ccc([N+](=O)[O-])cc1 [Compound 30, 1-hydroxy-1-(1-methylethyl)-3-(4-nitrophenyl)urea] | 300 nM | 13% | 
CCCCCCCCN(O)C(=O)Nc1ccccc1 [Compound 52, 1-hydroxy-1-octyl-3-phenylurea] | < 100 nM | 9% | 
O=C(Nc1ccccc1)N(O)C1CCCCCC1 [Compound 51, 1-cycloheptyl-1-hydroxy-3-phenylurea] | 600 nM | 22% | 
Cc1cc(C)c(NC(=O)N(O)C(C)C)cc1C [Compound 67, 1-Hydroxy-1-(1-methylethyl)-3-(2,4,5-trimethylphenyl)urea] | < 1000 nM | 23% | 
CCCCCCCCCCCCN(O)C(=O)Nc1ccccc1 [Compound 53, 1-dodecyl-1-hydroxy-3-phenylurea] | < 1000 nM | 1% | 
O=C(Nc1ccccc1)N(O)C1CCCCCCC1 [Compound 36, 1-Cyclooctyl-1-hydroxy-3-phenylurea] | 200 nM | 7% | 
CCOC(=O)CCCCCN(O)C(=O)Nc1ccccc1 [Compound 50, 6-(1-hydroxy-3-phenylureido)-1-hexanoic acid ethyl ester] | < 1000 nM | 6% | 
CC(C)N(O)C(=O)Nc1ccc([S+](C)[O-])cc1 (stereo not drawn) [Compound 63, 1-Hydroxy-1-(1-methylethyl)-3-[4-(methylsulfinyl)phenyl]urea] | 4000 nM | 92% | 
CCCCCN(O)C(=O)Nc1ccccc1 [Compound 56, 1-hydroxy-1-pentyl-3-phenylurea] | < 100 nM | 6% and 13% | 
CCCC(CCC)N(O)C(=O)Nc1ccccc1 [Compound 70, 1-Hydroxy-1-(1-propylbutyl)-3-phenylurea] | < 1000 nM | 0% | 
COc1ccc(NC(=O)N(O)C2CCCCCCC2)cc1 [Compound 37, 1-Cyclooctyl-1-hydroxy-3-(4-methoxyphenyl)urea] | < 1000 nM | 7% | 
CN(O)C(=O)Nc1ccc([N+](=O)[O-])cc1 [Compound 13, 1-hydroxy-1-methyl-3-(4-nitrophenyl)urea] | 1000 nM | 23% | 
CN(O)C(=O)N(C)c1ccccc1 [Compound 75, 1-Hydroxy-1,3-dimethyl-3-phenylurea] | < 10000 nM | 0% | 

Now from value to molecule, other results behind:

IC50 [1] | SMILES | %I [2] | further results
< 100 nM | CCC(CC)N(O)C(=O)Nc1ccccc1Oc1ccccc1 [Compound 76, 1-Hydroxy-1-(1-ethylpropyl)-3-(2-phenoxyphenyl)urea] | 13% | 
1000 nM | CCC(CC)N(O)C(=O)Nc1ccc([N+](=O)[O-])cc1 [Compound 40, 1-(1-Ethylpropyl)-1-hydroxy-3-(4-nitrophenyl)urea] | 0% | 
< 1000 nM | CCC(CC)N(O)C(=O)Nc1ccc(Cc2ccccc2)cc1 [Compound 78, 1-Hydroxy-1-(1-ethylpropyl)-3-(4-benzylphenyl)urea] | 0% | 
< 1000 nM | CCC(CC)N(O)C(=O)Nc1ccc(SC)cc1 [Compound 39, 1-(1-Ethylpropyl)-1-hydroxy-3-[4-(methylthio)phenyl]urea] | 59% | 
< 1000 nM | CCC(C)N(O)C(=O)Nc1ccccc1 (stereo not drawn) [Compound 69, 1-Hydroxy-1-(1-methylpropyl)-3-phenylurea] | 71% | 
< 10000 nM | CCC(CC)N(O)C(=O)N(C)c1ccccc1 [Compound 74, 1-Hydroxy-1-(1-ethylpropyl)-3-methyl-3-phenylurea] | 7% | 
< 100 nM | CCC(CC)N(O)C(=O)Nc1cccc(Oc2ccccc2)c1 [Compound 77, 1-Hydroxy-1-(1-ethylpropyl)-3-(3-phenoxyphenyl)urea] | 7% | 
< 1000 nM | CCCC(CC)N(O)C(=O)Nc1ccccc1 (stereo not drawn) [Compound 71, 1-Hydroxy-1-(1-ethylbutyl)-3-phenylurea] | 5% | 

Source: EP0777471B1, “INHIBITION OF LEUKOTRIENE BIOSYNTHESIS WITH UREA DERIVATIVES” (MINNESOTA MINING AND MANUFACTURING COMPANY, priority 1994, dated 1996)
